Source: patent US10239849B2 (Merck Sharp & Dohme Corp., priority 2015, dated 2019)

Legend:
[1] = biological target: T1, glutathione-S-transferase (GST) tagged LXRbeta LBD (ligand binding domain) (Homo sapiens, UniProt P55055); assay: LanthaScreen TR-FRET Liver X Receptor Coactivator Assay, LXR beta-LBD; format: biochemical; settings: for Emax: efficacy in relation to reference dual agonist T1317, read-out: LXR beta activity at max dose (%) (Emax); for EC50: potency (Inflection Point) of co-activator recruitment, TR-FRET, read-out: LXR beta IP
T1 construct: purchased Invitrogen pv4658.pps
T1 sequence (P55055 222-460 limits assumed): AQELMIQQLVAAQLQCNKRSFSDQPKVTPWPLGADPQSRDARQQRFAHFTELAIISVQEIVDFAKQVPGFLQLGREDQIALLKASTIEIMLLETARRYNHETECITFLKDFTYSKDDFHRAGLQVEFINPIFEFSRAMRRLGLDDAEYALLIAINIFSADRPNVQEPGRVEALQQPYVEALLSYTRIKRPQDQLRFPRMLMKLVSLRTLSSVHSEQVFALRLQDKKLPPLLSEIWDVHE
Summary of the method: (§1)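 LXR alpha- or beta-LBD added to test compounds, then fluorescein-labelled coactivator peptide plus terbium anti-GST antibody. After incubation at room temperature, TR-FRET read on a filter-based plate reader.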

[2] = biological target: T2, glutathione-S-transferase (GST) tagged LXRalpha LBD (ligand binding domain) (Homo sapiens, UniProt Q13133); assay: LanthaScreen TR-FRET Liver X Receptor Coactivator Assay, LXR alpha-LBD; format: biochemical; settings: for Emax: efficacy in relation to reference dual agonist T1317, read-out: LXR alpha activity at max dose (%) (Emax); for EC50 / LXR alpha IP (nM): potency (Inflection Point) of co-activator recruitment, TR-FRET; for EC50: read-out: LXR alpha IP
T2 construct: purchased Invitrogen pv4655
T2 sequence (Q13133 209-447 limits assumed): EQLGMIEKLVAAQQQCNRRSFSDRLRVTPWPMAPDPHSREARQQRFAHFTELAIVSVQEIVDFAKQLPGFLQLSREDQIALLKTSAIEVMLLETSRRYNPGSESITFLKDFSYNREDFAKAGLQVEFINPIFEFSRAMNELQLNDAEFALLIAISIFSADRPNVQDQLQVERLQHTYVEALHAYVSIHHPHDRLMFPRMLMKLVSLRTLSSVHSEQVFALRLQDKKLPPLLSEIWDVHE
Summary of the method: as §1

Row | Compound | Emax [1] [%] | EC50 [1] [nM] | Emax [2] [%] | EC50 [2] [µM] | LXR alpha IP (nM) [2]
1 | Cc1ccccc1COC(=O)N1CCN(c2ncc(-c3ccc(C(=O)N(C)C)c(Cl)c3)cc2C#N)CC1 [Example 3-4, 2-methylbenzyl 4-{5-[3-chloro-4-(dimethylcarbamoyl)phenyl]-3-cyanopyridin-2-yl}piperazine-1-carboxylate] | 86 | 87 | 122 | 2.82 | –
2 | Cc1cccc(COC(=O)N2CCN(c3ncc(-c4ccc(C(=O)N(C)C)c(Cl)c4)cc3C#N)CC2)c1 [Example 3-5, 3-methylbenzyl 4-{5-[3-chloro-4-(dimethylcarbamoyl)phenyl]-3-cyanopyridin-2-yl}piperazine-1-carboxylate] | 97 | 56 | 57 | 1.34 | –
3 | CN(C)C(=O)c1ccc(-c2cnc(N3CCN(C(=O)OCc4ccccc4F)CC3)c(C#N)c2)cc1Cl [Example 3-6, 2-fluorobenzyl 4-{5-[3-chloro-4-(dimethylcarbamoyl)phenyl]-3-cyanopyridin-2-yl}piperazine-1-carboxylate] | 92 | 21 | 50 | 6.61 | –
4 | COc1ccccc1COC(=O)N1CCN(c2ncc(-c3ccc(C(=O)N(C)C)c(Cl)c3)cc2C#N)CC1 [Example 3-7, 2-methoxybenzyl 4-{5-[3-chloro-4-(dimethylcarbamoyl)phenyl]-3-cyanopyridin-2-yl}piperazine-1-carboxylate] | 85 | 36 | 41 | 8.59 | –
5 | COc1ccc(COC(=O)N2CCN(c3ncc(-c4ccc(C(=O)N(C)C)c(Cl)c4)cc3C#N)CC2)cc1 [Example 3-8, 4-methoxybenzyl 4-{5-[3-chloro-4-(dimethylcarbamoyl)phenyl]-3-cyanopyridin-2-yl}piperazine-1-carboxylate] | 65 | 210 | 65 | 24.6 | –
6 | CN(C)C(=O)c1ccc(-c2cnc(N3CCN(C(=O)OCc4ccccc4Cl)CC3)c(C#N)c2)cc1Cl [Example 3-9, 2-chlorobenzyl 4-{5-[3-chloro-4-(dimethylcarbamoyl)phenyl]-3-cyanopyridin-2-yl}piperazine-1-carboxylate] | 84 | 155 | 39 | 8.9 | –
7 | CN(C)C(=O)c1ccc(-c2cnc(N3CCN(C(=O)OCc4cccc(Cl)c4)CC3)c(C#N)c2)cc1Cl [Example 3-10, 3-chlorobenzyl 4-{5-[3-chloro-4-(dimethylcarbamoyl)phenyl]-3-cyanopyridin-2-yl}piperazine-1-carboxylate] | 75 | 68 | 79 | 23.5 | –
8 | CN(C)C(=O)c1ccc(-c2cnc(N3CCN(C(=O)OCc4ccccc4C(F)(F)F)CC3)c(C#N)c2)cc1Cl [Example 3-11, 2-(trifluoromethyl)benzyl 4-{5-[3-chloro-4-(dimethylcarbamoyl)phenyl]-3-cyanopyridin-2-yl}piperazine-1-carboxylate] | 96 | 79 | 39 | 1.2 | –
9 | CN(C)C(=O)c1ccc(-c2cnc(N3CCN(C(=O)OCC4(C)CC4)CC3)c(C#N)c2)cc1Cl [Example 3-12, (1-methylcyclopropyl)methyl 4-{5-[3-chloro-4-(dimethylcarbamoyl)phenyl]-3-cyanopyridin-2-yl}piperazine-1-carboxylate] | 55 | 39 | 30 | 4.33 | –
10 | CN(C)C(=O)c1ccc(-c2cnc(N3CCN(C(=O)OCC4CC4(C)C)CC3)c(C#N)c2)cc1Cl (centres unmarked) [Example 3-13, (2,2-dimethylcyclopropyl)methyl 4-{5-[3-chloro-4-(dimethylcarbamoyl)phenyl]-3-cyanopyridin-2-yl}piperazine-1-carboxylate] | 31 | 105 | 16 | – | No IP
11 | CN(C)C(=O)c1ccc(-c2cnc(N3CCN(C(=O)OCc4ccccc4)CC3)c(C#N)c2)cc1Cl [Example 3-14, benzyl 4-{5-[3-chloro-4-(dimethylcarbamoyl)phenyl]-3-cyanopyridin-2-yl}piperazine-1-carboxylate] | 74 | 57 | 26 | 4.83 | –
12 | CN(C)C(=O)c1ccc(-c2ccc(N3CCN(C(=O)c4ccccc4C#N)CC3)cc2)cc1Cl [Example 4-2, 3-chloro-4′-{4-[(2-cyanophenyl)carbonyl]piperazin-1-yl}-N,N-dimethylbiphenyl-4-carboxamide] | 93 | 2320 | 24 | – | No IP
13 | CN(C)C(=O)c1ccc(-c2ccc(N3CC4CCC3CN4C(=O)OC(C)(C)C)c(Cl)c2)cc1Cl (centres unmarked) [Example 4-3, tert-butyl 5-[3,3′-dichloro-4′-(dimethylcarbamoyl)biphenyl-4-yl]-2,5-diazabicyclo[2.2.2]octane-2-carboxylate] | 87 | 39 | 79 | 1.57 | –
14 | CN(C)C(=O)c1ccc(-c2ccc(N3CCN(C(=O)c4ccccc4Cl)CC3)c(Cl)c2)cc1Cl [Example 4-4, 3,3′-dichloro-4′-{4-[(2-chlorophenyl)carbonyl]piperazin-1-yl}-N,N-dimethylbiphenyl-4-carboxamide] | 75 | 98 | 44 | 1.31 | –
15 | CN(C)C(=O)c1ccc(-c2ccc(N3CCN(C(=O)c4c(F)cccc4Cl)CC3)c(Cl)c2)cc1Cl [Example 4-5, 3,3′-dichloro-4′-{4-[(2-chloro-6-fluorophenyl)carbonyl]piperazin-1-yl}-N,N-dimethylbiphenyl-4-carboxamide] | 88 | 39 | 63 | 0.618 | –
16 | CN(C)C(=O)c1ccc(-c2cc(Cl)c(N3CCN(C(=O)c4ccccc4Cl)CC3)c(Cl)c2)cc1Cl [Example 4-6, 3,3′,5′-trichloro-4′-{4-[(2-chlorophenyl)carbonyl]piperazin-1-yl}-N,N-dimethylbiphenyl-4-carboxamide] | 39 | 188 | 16 | 1.6 | –
17 | CN(C)C(=O)c1ccc(-c2ccc(N3CCN(C(=O)c4c(F)cccc4C(F)(F)F)CC3)c(Cl)c2)cc1Cl [Example 4-7, 3,3′-dichloro-4′-(4-{[2-fluoro-6-(trifluoromethyl)phenyl]carbonyl}piperazin-1-yl)-N,N-dimethylbiphenyl-4-carboxamide] | 83 | 106 | 64 | 1.28 | –
18 | CN(C)C(=O)c1ccc(-c2ccc(N3CCN(S(=O)(=O)c4c(Cl)cccc4Cl)CC3)c(Cl)c2)cc1Cl [Example 4-8, 3,3′-dichloro-4′-{4-[(2,6-dichlorophenyl)sulfonyl]piperazin-1-yl}-N,N-dimethylbiphenyl-4-carboxamide] | 101 | 2820 | 38 | 10.5 | –
19 | CN(C)C(=O)c1ccc(-c2ccc(N3CCN(S(=O)(=O)c4c(Cl)cccc4C(F)(F)F)CC3)c(Cl)c2)cc1Cl [Example 4-9, 3,3′-dichloro-4′-(4-{[2-chloro-6-(trifluoromethyl)phenyl]sulfonyl}piperazin-1-yl)-N,N-dimethylbiphenyl-4-carboxamide] | 96 | 597 | 51 | 4.13 | –
20 | CN(C)C(=O)c1ccc(-c2cc(Cl)c(N3CCN(S(=O)(=O)c4c(Cl)cccc4Cl)CC3)c(Cl)c2)cc1Cl [Example 4-10, 3,3′,5′-trichloro-4′-{4-[(2,6-dichlorophenyl)sulfonyl]piperazin-1-yl}-N,N-dimethylbiphenyl-4-carboxamide] | 77 | 94 | 30 | 1.26 | –
21 | CN(C)C(=O)c1ccc(-c2ccc(N3CCN(C(=O)OC(C)(C)C)CC3)cc2)cc1Cl [Example 4-11, tert-butyl 4-[3′-chloro-4′-(dimethylcarbamoyl)biphenyl-4-yl]piperazine-1-carboxylate] | 82 | 238 | 55 | 5.47 | –
22 | CN(C)C(=O)c1ccc(-c2ccc(N3CCN(C(=O)c4c(F)cccc4C(F)(F)F)CC3)cc2)cc1Cl [Example 4-12, 3-chloro-4′-(4-{[2-fluoro-6-(trifluoromethyl)phenyl]carbonyl}piperazin-1-yl)-N,N-dimethylbiphenyl-4-carboxamide] | 83 | 881 | 20 | – | No IP
23 | CN(C)C(=O)c1ccc(-c2ccc(N3CCN(S(=O)(=O)c4c(Cl)cccc4Cl)CC3)cc2)cc1Cl [Example 4-13, 3-chloro-4′-{4-[(2,6-dichlorophenyl)sulfonyl]piperazin-1-yl}-N,N-dimethylbiphenyl-4-carboxamide] | 97 | 380 | 29 | 5.73 | –
